Measured values published in patent US20080051435A1, “Crystalline and amorphous forms of tiagabine” (Cephalon, Inc., priority 2006, published 2008).

Tests used:
[1] = Solid-form stability on storage at ambient temperature and humidity, XRPD analysis; format: physicochemical; conditions: for form conversion during storage: during storage (general description); for solid form by XRPD after storage: stored approximately two months, ambient temperature and humidity, hydrochloride
Text: Tiagabine HCl Form K was stored for approximately two months under conditions of ambient temperature and humidity.

[2] = Moisture sorption/desorption (VTI SGA-100 moisture balance); format: physicochemical
Experimental: Moisture sorption/desorption data were collected on a VTI SGA-100 moisture balance system. For sorption isotherms, a sorption range of 5 to 95% relative humidity (RH) and a desorption range of 95 to 5% RH in 10% RH increments were used for analysis. The samples were not dried prior to analysis. Equilibrium criteria used for analysis were less than 0.0100% weight change in 5 minutes with a maximum equilibration time of 3 hours if the weight criterion was not met. Data were not corrected for the initial moisture content of the samples.

Structure (SMILES) | form conversion during storage ([1]; listed as Tiagabine hydrochloride Form K) | solid form by XRPD after storage [1] | form conversion during storage ([1]; listed as Tiagabine hydrochloride Form L) | solid form by XRPD after moisture sorption/desorption ([2]; XRPD analysis of the sample after moisture sorption/desorption) | weight loss from 95% to 5% RH ([2]; desorption 95% to 5% RH) | weight loss upon equilibration at 5% relative humidity (RH) ([2]; equilibration at 5% RH, sample not dried prior to analysis) | weight gain from 5% to 95% RH ([2]; sorption 5% to 95% RH)
Cc1ccsc1C(=CCCN1CCC[C@@H](C(=O)O)C1)c1sccc1C.Cl [Tiagabine HCl Form K, tiagabine hydrochloride] | converts to a mixture of tiagabine hydrochloride Forms Q and B | a mixture of tiagabine HCl Forms Q and B |  |  |  |  | 
Cc1ccsc1C(=CCCN1CCC[C@@H](C(=O)O)C1)c1sccc1C.Cl [Tiagabine HCl Form L, tiagabine hydrochloride] |  | a mixture of tiagabine HCl Forms B and Q | converts to a mixture of tiagabine hydrochloride Forms B and Q |  |  |  | 
Cc1ccsc1C(=CCCN1CCC[C@@H](C(=O)O)C1)c1sccc1C [Tiagabine free base Form A, (−)-(R)-1-(4,4-bis(3-methyl-2-thienyl)-3-butenyl)-3-piperidinecarboxylic acid] |  |  |  | tiagabine free base amorphous | 18.7% | 1.0% | 23.5%
